Reference: PubChem BioAssay AID256 (DTP/NCI, 2004)
Values joined by “and” are separate entries in the source; they are usually repeats but may differ in a detail not shown here. Equal values may be shown once. Inconclusive results and toxic doses are left out. The calls were made as follows: active = survival T/C of 150% or more; inactive = T/C below 125% in these data.

Test system: CD2F1 mice, L1210 leukemia ip, survival T/C
Experiment: NCI In Vivo Anticancer Drug Screen. Data for tumor model L1210 Leukemia (intraperitoneal) in CD2F1 (CDF1) mice
Conditions: higher = longer survival
In short: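 Compound-dosed mice with transplantable tumor versus matched vehicle controls; endpoint ratio T/C reported.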

[1] = endpoint: mean survival time, dose: 100.0 mg/kg/injection, schedule: Q01DX001 (ip), vehicle: saline with Tween-80
[2] = endpoint: mean survival time, dose: 200.0 mg/kg/injection, schedule: Q01DX001 (ip), vehicle: saline with Tween-80
[3] = endpoint: mean survival time, dose: 400.0 mg/kg/injection, schedule: Q01DX001 (ip), vehicle: saline with Tween-80
[4] = endpoint: mean survival time, dose: 100.0 mg/kg/injection, schedule: Q01DX009 (ip), vehicle: saline with Tween-80
[5] = endpoint: mean survival time, dose: 100.0 mg/kg/injection, schedule: Q01DX009 (ip), vehicle: saline sonified
[6] = endpoint: mean survival time, dose: 100.0 mg/kg/injection, schedule: Q04DX003 (ip), vehicle: other
[7] = endpoint: mean survival time, dose: 200.0 mg/kg/injection, schedule: Q04DX003 (ip), vehicle: other
[8] = endpoint: mean survival time, dose: 400.0 mg/kg/injection, schedule: Q04DX003 (ip), vehicle: other
[9] = endpoint: mean survival time, dose: 100.0 mg/kg/injection, schedule: Q04DX003 (ip), vehicle: saline with Tween-80
[10] = endpoint: mean survival time, dose: 200.0 mg/kg/injection, schedule: Q04DX003 (ip), vehicle: saline with Tween-80
[11] = endpoint: mean survival time, dose: 12.5 mg/kg/injection, schedule: Q04DX003 (ip), vehicle: saline with Tween-80
[12] = endpoint: mean survival time, dose: 25.0 mg/kg/injection, schedule: Q04DX003 (ip), vehicle: saline with Tween-80
[13] = endpoint: mean survival time, dose: 50.0 mg/kg/injection, schedule: Q04DX003 (ip), vehicle: saline with Tween-80

Measured: T/C

C=C(C)C12CC(C)C34OC(CCCCCCCCCCC)(OC1C3C1OC1(CO)C(O)C1(O)C(=O)C(C)=CC14C)O2 (stereo not drawn)
inactive: endpoint: mean survival time, dose: 0.05 mg/kg/injection, schedule: Q01DX009 (ip), vehicle: other 94 % of control | endpoint: mean survival time, dose: 0.1 mg/kg/injection, schedule: Q01DX009 (ip), vehicle: other 89 % of control | endpoint: mean survival time, dose: 0.2 mg/kg/injection, schedule: Q01DX009 (ip), vehicle: other 89 % of control | endpoint: mean survival time, dose: 0.4 mg/kg/injection, schedule: Q01DX009 (ip), vehicle: other 89 % of control

CC12CCCC=C1N(C=O)c1ccccc12 (stereo not drawn)
inactive: endpoint: mean survival time, dose: 100.0 mg/kg/injection, schedule: Q01DX001 (ip), vehicle: saline 95 % of control | endpoint: mean survival time, dose: 200.0 mg/kg/injection, schedule: Q01DX001 (ip), vehicle: saline 100 % of control | endpoint: mean survival time, dose: 400.0 mg/kg/injection, schedule: Q01DX001 (ip), vehicle: saline 95 % of control

O=C(O)CC(Nc1sc([N+](=O)[O-])cc1[N+](=O)[O-])C(=O)O (stereo not drawn)
inactive: [1] 98 % of control | [2] 105 % of control | [3] 102 % of control

C[N+](C)(C)Cc1ncccc1OC(=O)N(c1ccccc1)c1ccccc1
inactive: endpoint: mean survival time, dose: 25.0 mg/kg/injection, schedule: Q01DX009 (ip), vehicle: saline with Tween-80 98 % of control | endpoint: mean survival time, dose: 50.0 mg/kg/injection, schedule: Q01DX009 (ip), vehicle: saline with Tween-80 96 % of control | [4] 107 % of control

Cc1c(Cl)ccc(Cl)c1Cl
inactive: [5] 105 % of control | endpoint: mean survival time, dose: 100.0 mg/kg/injection, schedule: Q04DX003 (ip), vehicle: saline sonified 104 % of control | endpoint: mean survival time, dose: 200.0 mg/kg/injection, schedule: Q01DX009 (ip), vehicle: saline sonified 100 % of control | endpoint: mean survival time, dose: 200.0 mg/kg/injection, schedule: Q04DX003 (ip), vehicle: saline sonified 101 % of control | endpoint: mean survival time, dose: 400.0 mg/kg/injection, schedule: Q01DX009 (ip), vehicle: saline sonified 102 % of control | endpoint: mean survival time, dose: 400.0 mg/kg/injection, schedule: Q04DX003 (ip), vehicle: saline sonified 106 % of control

COc1c(O)ccc(/C=C2/SC(=S)NC2=O)c1[N+](=O)[O-]
inactive: [1] 101 % of control

NC(CSC(c1ccccc1)(c1ccccc1)c1ccc(-c2ccccc2)cc1)C(=O)O (stereo not drawn)
inactive: endpoint: mean survival time, dose: 50.0 mg/kg/injection, schedule: Q01DX009 (ip), vehicle: saline 111 % of control | endpoint: mean survival time, dose: 100.0 mg/kg/injection, schedule: Q01DX009 (ip), vehicle: saline 108 % of control | endpoint: mean survival time, dose: 200.0 mg/kg/injection, schedule: Q01DX009 (ip), vehicle: saline 105 % of control | endpoint: mean survival time, dose: 400.0 mg/kg/injection, schedule: Q01DX009 (ip), vehicle: saline 100 % of control

COC(=O)Nc1ccc(C)cc1[N+](=O)[O-]
inactive: [6] 106 % of control | [7] 106 % of control | [8] 109 % of control

CC1(C)OC2C(COC(=O)Oc3ccccc3)OC(n3cnc4c(=O)[nH]c(N)nc43)C2O1 (stereo not drawn)
inactive: endpoint: mean survival time, dose: 100.0 mg/kg/injection, schedule: Q01DX001 (ip), vehicle: Klucel (hydroxypropylcellulose) (HPC) 92 % of control | endpoint: mean survival time, dose: 200.0 mg/kg/injection, schedule: Q01DX001 (ip), vehicle: Klucel (hydroxypropylcellulose) (HPC) 93 % of control | endpoint: mean survival time, dose: 400.0 mg/kg/injection, schedule: Q01DX001 (ip), vehicle: Klucel (hydroxypropylcellulose) (HPC) 92 % of control

COc1ccc2c(c1C)Cc1ccccc1C2=O
inactive: [9] 90 % of control | [10] 89 % of control | endpoint: mean survival time, dose: 400.0 mg/kg/injection, schedule: Q04DX003 (ip), vehicle: saline with Tween-80 97 % of control

[NH-]c1ncnc2c1ncn2C1OC(CO)C(O)C1O.[NH-]c1ncnc2c1ncn2C1OC(CO)C(O)C1O.[Pt+2] (stereo not drawn)
inactive: [11] 92 % of control | [12] 95 % of control | [13] 92 % of control | [9] 89 % of control | [10] 86 % of control

O=C(COc1cccc(Cl)c1)NCc1ccccc1NC(=O)c1ccc(S(=O)(=O)F)cc1
inactive: [1] 91 % of control | [2] 95 % of control | [3] 91 % of control

COc1cc2c(cc1OC)C(Cc1ccccc1)=NCC2
inactive: endpoint: mean survival time, dose: 50.0 mg/kg/injection, schedule: Q01DX009 (ip), vehicle: saline sonified 101 % of control | [5] 101 % of control | [9] 94 % of control | [10] 92 % of control

N=c1c2c(C(N)=O)cn(C3OC(CO)C(O)C3O)c2ncn1N (stereo not drawn)
inactive: endpoint: mean survival time, dose: 14.7 mg/kg/injection, schedule: Q01DX005 (ip), vehicle: water 110 % of control | endpoint: mean survival time, dose: 22.0 mg/kg/injection, schedule: Q01DX005 (ip), vehicle: water 118 % of control | endpoint: mean survival time, dose: 25.0 mg/kg/injection, schedule: Q01DX005 (ip), vehicle: water 117 % of control | endpoint: mean survival time, dose: 33.0 mg/kg/injection, schedule: Q01DX005 (ip), vehicle: water 121 % of control | endpoint: mean survival time, dose: 50.0 mg/kg/injection, schedule: Q01DX005 (ip), vehicle: water 120 % of control | endpoint: mean survival time, dose: 75.0 mg/kg/injection, schedule: Q01DX005 (ip), vehicle: water 106 % of control | endpoint: mean survival time, dose: 100.0 mg/kg/injection, schedule: Q01DX005 (ip), vehicle: water 98 % of control

CC(C)(C)C1(C)CC1(Br)Br (stereo not drawn)
inactive: [9] 105 % of control | [10] 96 % of control

[Cl][Pt+2][Cl].[NH-]C(Cc1ccc(O)cc1)C(=O)O.[NH-]C(Cc1ccc(O)cc1)C(=O)O (stereo not drawn)
inactive: [11] 95 % of control | [13] 97 % of control | [9] 95 % of control

CC(C)CCCC(C)C1CCC2C3CC=C4CC(OC(=O)CCC(C)C)CC(O)C4(C)C3CCC12C (stereo not drawn)
inactive: [4] 96 % of control | endpoint: mean survival time, dose: 200.0 mg/kg/injection, schedule: Q01DX009 (ip), vehicle: saline with Tween-80 94 % of control | endpoint: mean survival time, dose: 400.0 mg/kg/injection, schedule: Q01DX009 (ip), vehicle: saline with Tween-80 94 % of control

COc1cc2c(cc1OC)C1C(=CCC3c4cc(OC)c(OC)cc4CC[N+]31C)C=C2 (stereo not drawn)
inactive: endpoint: mean survival time, dose: 6.25 mg/kg/injection, schedule: Q04DX003 (ip), vehicle: saline with Tween-80 102 % of control | [11] 102 % of control | [12] 98 % of control

Clc1nnc(Nc2ccccc2)c2ccccc12
inactive: [6] 94 % of control | [7] 88 % of control | [8] 88 % of control

CC[C@]1(O)C[C@H](OC2CC(N(C)C)C(OC3CC(O)C(O)C(C)O3)C(C)O2)c2c(cc3c(c2O)C(=O)c2c(O)ccc(O)c2C3=O)[C@H]1C(=O)OC (stereo partly drawn)
inactive: endpoint: mean survival time, dose: 0.12 mg/kg/injection, schedule: Q01DX009 (ip), vehicle: Klucel (hydroxypropylcellulose) (HPC) 114 % of control and 109 % of control and 110 % of control

CC([NH-])C(=O)O.[Cl][Pt][Cl] (stereo not drawn)
inactive: endpoint: mean survival time, dose: 25.0 mg/kg/injection, schedule: Q04DX003 (ip), vehicle: saline 121 % of control | endpoint: mean survival time, dose: 50.0 mg/kg/injection, schedule: Q04DX003 (ip), vehicle: saline 110 % of control

CCC1(CC)COC(C)(C(=O)O)OC1
inactive: endpoint: mean survival time, dose: 100.0 mg/kg/injection, schedule: Q04DX003 (ip), vehicle: saline 111 % of control | endpoint: mean survival time, dose: 200.0 mg/kg/injection, schedule: Q04DX003 (ip), vehicle: saline 96 % of control | endpoint: mean survival time, dose: 400.0 mg/kg/injection, schedule: Q04DX003 (ip), vehicle: saline 100 % of control

CCN(C(=O)Nc1ccccc1Cl)c1ccccc1
inactive: endpoint: mean survival time, dose: 75.0 mg/kg/injection, schedule: Q04DX003 (ip), vehicle: saline with Tween-80 102 % of control | endpoint: mean survival time, dose: 150.0 mg/kg/injection, schedule: Q04DX003 (ip), vehicle: saline with Tween-80 101 % of control | endpoint: mean survival time, dose: 300.0 mg/kg/injection, schedule: Q04DX003 (ip), vehicle: saline with Tween-80 98 % of control

CN=NC1(OC(C)=O)CCCC1
inactive: endpoint: mean survival time, dose: 3.12 mg/kg/injection, schedule: Q01DX009 (ip), vehicle: saline 109 % of control | endpoint: mean survival time, dose: 6.25 mg/kg/injection, schedule: Q01DX009 (ip), vehicle: saline 111 % of control | endpoint: mean survival time, dose: 12.5 mg/kg/injection, schedule: Q01DX009 (ip), vehicle: saline 118 % of control and 121 % of control | endpoint: mean survival time, dose: 25.0 mg/kg/injection, schedule: Q01DX009 (ip), vehicle: saline 105 % of control

CCC1(O)C(=O)OCc2c1cc1n(c2=O)Cc2cc3ccc(C=O)cc3nc2-1 (stereo not drawn)
inactive: endpoint: median survival time, dose: 4.0 mg/kg/injection, schedule: Q04DX002 (ip), vehicle: saline with Tween-80 98 % of control | endpoint: median survival time, dose: 8.0 mg/kg/injection, schedule: Q04DX002 (ip), vehicle: saline with Tween-80 96 % of control | endpoint: median survival time, dose: 16.0 mg/kg/injection, schedule: Q04DX002 (ip), vehicle: saline with Tween-80 98 % of control | endpoint: median survival time, dose: 32.0 mg/kg/injection, schedule: Q04DX002 (ip), vehicle: saline with Tween-80 102 % of control
